Results: patent US20130109751A1, “LSD-1 ENZYME INHIBITORS FOR INDUCING OSTEOGENIC DIFFERENTIATION” ([…].R.L., priority 2011, published 2013)

Assays:
Format in all cases: cell-based, mice
[1] = tested on: W20-17 cells; test: Alizarin Red staining of mineralised nodules under different growth conditions (minimum medium); settings: 21 days, absence of dexamethasone and ascorbic acid, glycerol 2-phosphate necessary
Procedure: On the 21st day, the presence of mineralised matrix was evaluated by histochemical staining with Alizarin Red. The cells were washed with PBS, fixed with a 10% formaldehyde solution, and incubated with a 2% solution of Alizarin Red (pH 4.1-4.3) for one hour.
To evaluate the minimum composition of a medium capable of inducing the formation of mineralised matrix, W20-17 cells were seeded in a 96-well plate and cultured for 21 days under different growth conditions.
At the end of the treatment the cells were stained with Alizarin Red, as described in example 2, to evaluate the formation of mineralised nodules.

[2] = target: T1, LSD-1 (Mus musculus, UniProt Q6ZQ88); test: In vitro enzymatic activity assay of LSD-1 on W20-17 cells; settings: osteogenic medium supplemented with compound, vs osteogenic medium
T1 construct: endogenous in cells; host or cells: W20-17 cells
Procedure: To evaluate whether the activity of enzyme LSD-1 is inhibited during osteogenic differentiation, an in vitro enzymatic activity assay was performed on W20-17 cells to assess the percentage inhibition of LSD-1 activity under different conditions.

[3] = tested on: W20-17 cells; test: Expression profile of osteogenic markers by real-time PCR; settings: osteogenic medium, 21 days' treatment, normalised to GAPDH, vs osteogenic medium alone

Structure (SMILES) | mineralisation (Alizarin Red, mineralised nodules) [1] | percentage inhibition of LSD-1 activity [2] | expression of late marker osteocalcin [3]
N[C@@H]1C[C@H]1c1ccccc1 (racemic) [tranylcypromine, reference compound] | promotes mineralisation |  | 
NC1CC1c1ccc(NC(=O)C(Cc2ccccc2)NC(=O)OCc2ccccc2)cc1 (stereo not shown) [MC2580] | promotes mineralisation | percentage inhibition increases | most marked
